According to patent publication US6875575B1, “Diagnostic methods for neoplasia” (OSI Pharmaceuticals, Inc., priority 1998, dated 2005):
Entries after “also recorded” stand apart in the source; their conditions may differ. Where two headings read alike, the source gives them in different places.

Experiments:
PDE peak A (PDE5) = biological target: T1, PDE peak A (PDE5) (Homo sapiens, UniProt O76074); assay: cGMP hydrolysis by PDE peak A from SW-480 cells; type: biochemical
T1 construct: SW-480 cells are collected and homogenized; endogenous in cells; host or cells: SW-480 cells; supernatant fractionated on DEAE-Trisacryl M, peak A

HT-29 cells = assay: Apoptosis and necrosis by morphology (acridine orange/ethidium bromide); type: cell-based; settings: HT-29 cells treated for six days
Experimental: In one type of apoptosis assay, suspected neoplastic cells are removed from a patient. The cells are then grown in culture in the presence or absence of a cGMP-specific PDE inhibitor. Apoptotic cells are measured by combining both the attached and “floating” compartments of the cultures. The protocol for treating tumor cell cultures with PDE inhibitors and related compounds to obtain a significant amount of apoptosis has been described in the literature. (See, Piazza, G. A., et al., Cancer Research, 55:3110-16, 1995, which is incorporated herein by reference). The novel features of this assay include collecting both floating and attached cells, identification of the optimal treatment times and dose range for observing apoptosis, and identification of optimal cell culture conditions. […]
Apoptotic and necrotic cell death was determined as previously described (Duke and Cohen, In: Current Protocols in Immunology, 3.17.1-3.17.16, New York, John Wiley and Sons, 1992). […]
The diagnostic method of this invention is used to determine whether a particular neoplasia is sensitive to treatment with a cGMP-specific PDE inhibitor. The apoptosis inducing activity for a series of phosphodiesterase inhibitors, specific for different PDEs, was determined. […] Apoptosis and necrosis were determined morphologically after acridine orange and ethidium bromide labeling in accordance with the assay described, supra.

[1] = system: PDE peak B (novel cGMP-specific PDE); assay: cGMP hydrolysis by PDE peak B from SW-480 cells; type: biochemical, human
neoplastic cells = assay: Apoptosis induction in neoplastic cells; type: cell-based
[2] = system: colonic polyps (dysplastic tissue); assay: Apoptosis clinical study: apoptotic labeling index (ALI) in polyps; type: in vivo, human
Experimental: (§1) Increases in apoptosis are indicative that the neoplasia in question is sensitive to treatment with a cGMP-specific PDE inhibitor, such as sulindac sulfone (aposulind). A human in vivo aposulind-induced selective induction of apoptosis in colonic polyps is described below. Six familial polyposis patients per group were administered one of three doses of aposulind (200 mg, 400 mg which was later lowered to 200 mg for most patients in the group, or 300 mg) twice daily (BID).
Biopsies are taken from patients and used to investigate possible cellular mechanisms of apoptosis. Biopsy samples are placed in transfer media (500 ml RPMI 1640 containing 50 ml fetal calf serum, 5×10^8 units penicillin G, and 5×10^6 μg streptomycin) and kept on ice for less than 1 hour until transfer to the pathology department. Upon receipt in the pathology department, samples are removed from the transfer media and oriented mucosa up, serosa down on filter paper, placed between biopsy sponges in a tissue cassette, and fixed in 10% neutral buffered formalin for 24 hours. Samples are then transferred to 70% ethanol and embedded in paraffin. Samples are oriented perpendicularly to the tissue cassette during final orientation in paraffin for longitudinal crypt exposure and easy visualization of mucosa and the relation to the basement membrane.
Four micron sections of tissue were cut, mounted, deparaffinized, rehydrated in graded alcohol, and treated with pepsin (5 mg/ml) to digest protein in the tissue. Sections were washed and treated with 2% hydrogen peroxide (H2O2) in PBS to quench endogenous peroxidase and washed again. Tissue samples were then circled with a PAP pen (Research Products Int., 800-323-9814) to produce a hydrophobic barrier to concentrate reagents on the sample. […]
(§2) Apoptotic and nonapoptotic cells are counted on the basis of staining and morphology. An apoptotic labeling index (ALI) is calculated by dividing the total number of apoptotic cells counted by the total number of epithelial cells counted and expressing the quotient as a percentage.

normal mucosa = assay: Apoptosis clinical study: ALI in normal mucosa; type: in vivo, human; settings: any of the treatment groups
Experimental: as §1
Biopsies are taken from patients and used to investigate possible cellular mechanisms of apoptosis. Biopsy samples are placed in transfer media (500 ml RPMI 1640 containing 50 ml fetal calf serum, 5×10^8 units penicillin G, and 5×10^6 μg streptomycin) and kept on ice for less than 1 hour until transfer to the pathology department. Upon receipt in the pathology department, samples are removed from the transfer media and oriented mucosa up, serosa down on filter paper, placed between biopsy sponges in a tissue cassette, and fixed in 10% neutral buffered formalin for 24 hours. […]
as §2

Row | Structure (SMILES) | inhibition of peak A / PDE5 (in words) (PDE peak A (PDE5)) | inhibition of peak B / new cGMP-PDE (in words) [1] | induction of apoptosis in neoplastic cells (in words) (neoplastic cells) | other results
1 | CSc1ccc(/C=C2/C(C)=C(CC(=O)O)c3cc(F)ccc32)cc1 [Sulindac sulfide, sulindac sulfide] | inhibit | inhibit | induce apoptosis in neoplastic cells | inhibition of peak A / PDE5 (in words) (PDE peak A (PDE5); listed as sulindac sulfide): competitively inhibit; apoptotic and necrotic cell death (FIG. 1) (HT-29 cells): capable of causing apoptotic cell death without inducing neoplastic cell necrosis; inhibition of peak B / new cGMP-PDE (in words) ([1]; listed as sulindac sulfide): competitively inhibit
2 | CCOC(=O)C1=C[C@]2(CC)CCCN3CCc4c(n1c1ccccc41)[C@@H]32 [Vinpocetine] |  | relatively insensitive |  | 
3 | CCCOc1ccccc1-c1nc2nn[nH]c2c(=O)[nH]1 [Zaprinast] | competitive inhibition | relatively insensitive to inhibition; also recorded: zaprinast-insensitive | do not have significant apoptosis-inducing or growth-inhibiting properties | 
4 | COc1ccc(C2CNC(=O)C2)cc1OC1CCCC1 (centres unmarked) [Rolipram] |  | relatively insensitive |  | 
5 | CC1=C(CC(=O)O)c2cc(F)ccc2/C1=C\c1ccc(S(C)(=O)=O)cc1 [Exisulind, (Z)-5-fluoro-2-methyl-1-[[4-(methylsulfonyl)phenyl]methylene]indene-3-yl acetic acid] |  |  |  | change in ALI following treatment ([2]; 200 mg BID group): did not demonstrate any elevation in ALI; change in ALI in polyps ([2]; 300 mg BID, six months of treatment): two fold increase in ALI; change in ALI of dysplastic tissue following drug treatment ([2]; 400/200 mg BID group when uniformly dosed at 400 mg BID): two-fold elevation in ALI; apoptotic and necrotic cell death (FIG. 1) (HT-29 cells): capable of causing apoptotic cell death without inducing neoplastic cell necrosis; normal mucosa ALI versus baseline ALI during treatment (normal mucosa): no significant change
6 | CCCc1nn(C)c2c(=O)[nH]c(-c3cc(S(=O)(=O)N4CCN(C)CC4)ccc3OCC)nc12 [Sildenafil] | inhibited activity of peak A | relatively insensitive to inhibition | do not have significant apoptosis-inducing or growth-inhibiting properties | 
7 | CC1(C)C(=O)Nc2ccc(C3=NNC(=O)CC3)cc21 [Indolidan] |  | relatively insensitive |  | 
8 | COc1cc(/C=C2/C(C)=C(CC(=O)NCc3ccccc3)c3cc(F)ccc32)cc(OC)c1OC [Compound E, (Z)-5-fluoro-2-methyl-1-(3,4,5-trimethoxybenzylidene)-3-indenylacetamide, N-benzyl] | competitively inhibit | competitively inhibit | induce apoptosis in neoplastic cells | 
9 | O=C(O)C1CCN(c2nc(NCc3ccc4c(c3)OCO4)c3cc(Cl)ccc3n2)CC1 [Compound E4021] |  | E4021-insensitive | do not have significant apoptosis-inducing or growth-inhibiting properties | inhibition of peak B / new cGMP-PDE (in words) ([1]; listed as E402 1): relatively insensitive to inhibition
